Values quoted from earlier work, collected in patent US9533037B2, “Methods for designing and preparing vaccines comprising directed sequence polymer compositions via the directed expansion of epitopes” (Declion Holdings LLC, priority 2007, dated 2017).

Test system: MBP83-99
Conditions: limited human trials

Sequence: AKPVVHLFANIVTPRTP
- immune reactivity against the peptide: long term immune reactivity
- clinical efficacy by evaluation using MRI (multiple sclerosis): clinically ineffective
